Values after ≈ are worked out from the molar mass of the structure shown.

The term MIC denotes the lowest concentration that inhibits growth of the organism. Low values mean greater potency, high ones weaker potency. What is called logP is a log measure of how a compound divides between an organic and an aqueous phase.

In data set [1] the test system is Mycobacterium tuberculosis. In words: Antitubercular activity against Mycobacterium tuberculosis H37Rv. The class given is functional.
Data set [2] can be described thus: Partition coefficient, log P of the compound. It counts as physicochemical. The note with it: octanol/water.
The subject of data set [3] is Mycobacterium tuberculosis. Put plainly: Antitubercular activity against Mycobacterium tuberculosis H37Ra. The class given is functional.

Turning to `c1ccc2c(NCCCCCNc3c4c(nc5ccccc35)CCCC4)c3c(nc2c1)CCCC3`, the minimal inhibitory concentration (MIC) in data set [1] worked out at 12.5 mg/L (≈ 26.9 µM); in data set [3], 25 mg/L (≈ 53.8 µM). Also, the logP in data set [2] (read-out: LogP) was 7.15.
In the case of `Clc1ccc(Oc2c3c(nc4ccccc24)CCCC3)cc1`, the minimal inhibitory concentration (MIC) is > 12.5 mg/L in data set [1] and > 25 mg/L in data set [3]. In addition, the logP in data set [2] (read-out: LogP) was determined as 5.81.
As for `Clc1ccc(Oc2c3c(nc4ccccc24)CCCC3)c(Cl)c1`, the MIC in data set [1] is > 12.5 mg/L; in data set [3] it was > 25 mg/L. The log partition coefficient (logP) in data set [2] (read-out: LogP) was determined as 6.37.
Turning to `CCCCCCCCCCCCNc1c2c(nc3ccccc13)CCCC2`, the minimum inhibitory concentration (MIC) turned out to be 0.78 mg/L (≈ 2.13 µM) in data set [1] and 6.25 mg/L (≈ 17 µM) in data set [3]. In addition, in data set [2] (read-out: LogP), the logP came to 7.79.
As to `C=CCc1ccc(Oc2c3c(nc4ccccc24)CCCC3)c(OC)c1`, the MIC is > 12.5 mg/L in data set [1] and 25 mg/L (≈ 72.4 µM) in data set [3]. Moreover, the logP in data set [2] (read-out: LogP) turned out to be 6.18.
For `CCCCCCCCNc1c2c(nc3ccccc13)CCCC2`, the MIC in data set [1] amounted to 3.12 mg/L (≈ 10 µM); in data set [3] it was 1.56 mg/L (≈ 5.02 µM). Besides, in data set [2] (read-out: LogP), the lipophilicity (logP) was found to be 6.12.
For `COc1ccc(Nc2c3c(nc4ccccc24)CCCC3)cc1`, the values for the minimum inhibitory concentration (MIC) in data set [1] and in data set [3] were > 12.5 mg/L and > 25 mg/L, respectively. Besides, in data set [2] (read-out: LogP), the log partition coefficient (logP) turned out to be 5.05.
As for `OCCNc1c2c(nc3ccccc13)CCCC2`, the minimum inhibitory concentration (MIC) in data set [1] was 12.5 mg/L (≈ 51.6 µM); in data set [3] it was > 25 mg/L. For the same molecule, the log partition coefficient (logP) in data set [2] (read-out: LogP) came to 2.69.
Take `CCCCCCNc1c2c(nc3ccccc13)CCCC2`: the MIC in data set [1] and in data set [3] was 6.25 mg/L (≈ 22.1 µM) throughout. Besides, the logP in data set [2] (read-out: LogP) was found to be 5.29.
With `c1ccc(Sc2c3c(nc4ccccc24)CCCC3)cc1`, the minimum inhibitory concentration (MIC) in data set [1] was > 12.5 mg/L; in data set [3], > 25 mg/L. Further, in data set [2] (read-out: LogP), the logP came to 5.82.
Regarding `c1ccc(CNc2c3c(nc4ccccc24)CCCC3)cc1`, the minimal inhibitory concentration (MIC) is > 12.5 mg/L in data set [1] and 25 mg/L (≈ 86.7 µM) in data set [3]. For the same molecule, the logP in data set [2] (read-out: LogP) turned out to be 4.94.
On to `Fc1ccc(Oc2c3c(nc4ccccc24)CCCC3)cc1`, for which the minimum inhibitory concentration (MIC) in data set [1] is > 12.5 mg/L; in data set [3], > 25 mg/L. In data set [2] (read-out: LogP), the lipophilicity (logP) was 5.41.
As to `c1ccc2c(NCCCCCCCNc3c4c(nc5ccccc35)CCCC4)c3c(nc2c1)CCCC3`, the values for the MIC in data set [1] and in data set [3] were 12.5 mg/L (≈ 25.4 µM) and 6.25 mg/L (≈ 12.7 µM), respectively. Further, in data set [2] (read-out: LogP), the logP stood at 7.99.
Turning to `Cc1ccc(Oc2c3c(nc4ccccc24)CCCC3)cc1C`, the results for the minimum inhibitory concentration (MIC) in data set [1] and in data set [3] were > 12.5 mg/L and > 25 mg/L, respectively. For the same molecule, the logP in data set [2] (read-out: LogP) amounted to 6.23.
For the molecule `c1ccc2c(NCCCCCCCCCCNc3c4c(nc5ccccc35)CCCC4)c3c(nc2c1)CCCC3`, the results for the MIC in data set [1] and in data set [3] were 12.5 mg/L (≈ 23.4 µM) and 3.12 mg/L (≈ 5.83 µM), respectively. Further, the logP in data set [2] came out at 9.24.
Consider `c1ccc2c(N3CCOCC3)c3c(cc2c1)CCCC3`, for which the MIC is 12.5 mg/L (≈ 46.8 µM) in data set [1] and > 25 mg/L in data set [3]. In addition, the logP in data set [2] (read-out: LogP) worked out at 3.6.
Take `Clc1cccc(CCNc2c3c(nc4ccccc24)CCCC3)c1`: the minimal inhibitory concentration (MIC) in data set [1] was > 12.5 mg/L; in data set [3] it was 25 mg/L (≈ 74.2 µM). Further, in data set [2] (read-out: LogP), the lipophilicity (logP) is 5.78.
In data set [1], `CC[C@@H](CO)NCCN[C@@H](CC)CO` [ETHAMBUTOL] displayed an MIC of 3.25 mg/L (≈ 15.9 µM).
For the molecule `NNC(=O)c1ccncc1` [ISONIAZID], in data set [1], the minimum inhibitory concentration (MIC) came to 0.65 mg/L (≈ 4.74 µM).
Take `CO[C@H]1/C=C/O[C@@]2(C)Oc3c(C)c(O)c4c(O)c(c(/C=N/N5CCN(C)CC5)c(O)c4c3C2=O)NC(=O)/C(C)=C\C=C\[C@H](C)[C@H](O)[C@@H](C)[C@@H](O)[C@@H](C)[C@H](OC(C)=O)[C@@H]1C` [RIFAMPIN]: the MIC in data set [1] is 0.75 mg/L (≈ 0.911 µM).

The values above are taken from ChEMBL document CHEMBL1149509, “Search of antitubercular activities in tetrahydroacridines: synthesis and biological evaluation” (Bioorg Med Chem Lett, 2006).
